Among the data in US20260022142A1, “MACROCYCLIC IMMUNOMODULATORS” (Bristol-Myers Squibb Company, priority 2022, published 2026) are IC50 values, retold here.

A word on the IC50: it is the concentration needed to halve the response being measured.

Each structure is given as a SMILES string. Bridge positions count the residues as written; N and C are the ends. Square brackets hold non-standard residues; d marks the D form. Peptide text beside a SMILES is read from it. * marks the point of attachment. ξ: configuration not given here. Bip = N[C@@H](Cc1ccc(-c2ccccc2)cc1)C(=O)O; Ala(2-furyl) = N[C@@H](Cc1ccco1)C(=O)O; Phe(3-Me) = Cc1cccc(C[C@H](N)C(=O)O)c1; 4Pal = N[C@@H](Cc1ccncc1)C(=O)O; Cha = N[C@@H](CC1CCCCC1)C(=O)O; NMeN = CN[C@@H](CC(N)=O)C(=O)O; dNMeN = CN[C@H](CC(N)=O)C(=O)O; Thr(3ξ) = CC(O)[C@H](N)C(=O)O; Carboxymethyl = O=C(O)C*; Orn = NCCC[C@H](N)C(=O)O; Aun = NCCCCCCCCCCC(=O)O; Dab = NCC[C@H](N)C(=O)O; AEEA = NCCOCCOCC(=O)O

This assay deals with T1, PD-1/PD-L1 interaction (PE-labeled human PD-L1-Ig binding to Jurkat cell line over-expressing human PD-1) (Homo sapiens, UniProt Q15116).
T1 construct: expressed in transfected cells; host or cells: Jurkat
T1 sequence (Q15116 25-288): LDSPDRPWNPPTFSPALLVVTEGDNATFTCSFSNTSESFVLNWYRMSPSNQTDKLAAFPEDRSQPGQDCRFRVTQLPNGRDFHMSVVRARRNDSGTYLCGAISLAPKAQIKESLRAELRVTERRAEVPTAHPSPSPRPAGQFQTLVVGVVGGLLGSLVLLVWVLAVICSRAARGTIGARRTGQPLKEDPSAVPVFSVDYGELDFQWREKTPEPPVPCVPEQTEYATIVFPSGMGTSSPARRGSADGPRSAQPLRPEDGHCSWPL
The assay can be described thus: Jurkat-PD-1 Cell Binding High-Content Screening Assay (CBA). The assay is classed as cell-based. To be noted: Jurkat cell line over-expressing human PD-1; PE-labeled PD-L1-Ig 20 nM final; read-out: Jurkat hPD1-PDL1 IC50. The method, boiled down:
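Jurkat cells stably over-expressing human PD-1 were seeded in DMEM with 10% fetal calf serum and pre-incubated with compound for 2 h at 37° C. PE-labeled human PD-L1-Ig was then added at 20 nM final for 1 hour, after which cells were fixed with paraformaldehyde, Hoechst-stained and imaged by high-content microscopy.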
For `Cc1cccc(C[C@@H]2NC(=O)[C@H](CC(=O)O)NC(=O)[C@H](Cc3ccc(OCC(=O)O)cc3)NC(=O)[C@H](C(C)O)NC(=O)CSC[C@@H](C(=O)N(C)[C@@H](CC(N)=O)C(=O)NCCCCCCCCCCC(=O)O)NC(=O)[C@H](CCCCN)NC(=O)[C@H](C(C)C)NC(=O)[C@H](CC3CCCCC3)NC(=O)[C@H](CCN)NC(=O)[C@@H](CC(C)C)NC(=O)[C@H](CCCN)NC(=O)[C@H](C(C)C)NC(=O)[C@H](Cc3ccc(-c4ccccc4)cc3)NC(=O)[C@H](C(C)C)NC2=O)c1` (stereo partly drawn) [Compound 3340] ({CH2CO}-[Thr(3ξ)]Y(Carboxymethyl)D[Phe(3-Me)]V[Bip]V[Orn][dL][Dab][Cha]VKC[NMeN][Aun]-OH; thioether N-14), the IC50 amounted to 8.7 nM.

With `CC(=O)NCCCC[C@@H]1NC(=O)[C@H](C(C)C)NC(=O)[C@H](CC2CCCCC2)NC(=O)[C@H](CCN)NC(=O)[C@@H](CC(C)C)NC(=O)[C@H](CCCN)NC(=O)[C@H](C(C)C)NC(=O)[C@H](Cc2ccc(-c3ccccc3)cc2)NC(=O)[C@H](C(C)C)NC(=O)[C@H](Cc2c[nH]c3ccccc23)NC(=O)[C@H](CC(=O)O)NC(=O)[C@H](Cc2ccc(OCC(=O)O)cc2)NC(=O)[C@H](CCCNC(=N)N)NC(=O)CSC[C@@H](C(=O)NCCOCCOCC(=O)NCCCCCCCCCCC(=O)O)NC1=O` [Compound 3341] ({CH2CO}-RY(Carboxymethyl)DWV[Bip]V[Orn][dL][Dab][Cha]VK(Ac)C[AEEA][Aun]-OH; thioether N-14), the IC50 was 7.4 nM.

For `Cc1cccc(C[C@@H]2NC(=O)[C@H](CC(=O)O)NC(=O)[C@H](Cc3ccc(OCC(=O)O)cc3)NC(=O)[C@H](CCCNC(=N)N)NC(=O)CSC[C@@H](C(=O)N[C@@H](CCN)C(=O)NCCCCCCCCCCC(=O)O)NC(=O)[C@H](CCC(=O)O)NC(=O)[C@H](C(C)C)NC(=O)[C@H](CC3CCCCC3)NC(=O)[C@H](CCN)NC(=O)[C@@H](CC(C)C)NC(=O)[C@H](CCCN)NC(=O)[C@H](Cc3ccc(O)cc3)NC(=O)[C@H](Cc3ccc(-c4ccccc4)cc3)NC(=O)[C@H](CC(C)C)NC2=O)c1` [Compound 3342] ({CH2CO}-RY(Carboxymethyl)D[Phe(3-Me)]L[Bip]Y[Orn][dL][Dab][Cha]VEC[Dab][Aun]-OH; thioether N-14), the IC50 was 38.3 nM.

With `CC(C)C[C@H]1NC(=O)[C@H](CCCN)NC(=O)[C@H](Cc2ccc(O)cc2)NC(=O)[C@H](Cc2ccc(-c3ccccc3)cc2)NC(=O)[C@H](C(C)C)NC(=O)[C@H](Cc2c[nH]c3ccccc23)NC(=O)[C@H](CC(=O)O)NC(=O)[C@H](Cc2ccc(OCC(=O)O)cc2)NC(=O)[C@H](CCCNC(=N)N)NC(=O)CSC[C@@H](C(=O)N[C@@H](CCN)C(=O)NCCCCCCCCCCC(=O)O)NC(=O)[C@H](Cc2ccc(O)cc2)NC(=O)[C@H](C(C)C)NC(=O)[C@H](CC2CCCCC2)NC(=O)[C@H](CCN)NC1=O` [Compound 3343] ({CH2CO}-RY(Carboxymethyl)DWV[Bip]Y[Orn][dL][Dab][Cha]VYC[Dab][Aun]-OH; thioether N-14), the half-inhibitory concentration (IC50) came out at 66.2 nM.

As for `CC(C)C[C@H]1NC(=O)[C@H](CCCN)NC(=O)[C@H](C(C)C)NC(=O)[C@H](Cc2ccc(-c3ccccc3)cc2)NC(=O)[C@H](C(C)C)NC(=O)[C@H](Cc2c[nH]c3ccccc23)NC(=O)[C@H](CC(=O)O)NC(=O)[C@H](Cc2ccc(OCC(=O)O)cc2)NC(=O)[C@H](CCCNC(=N)N)NC(=O)CSC[C@@H](C(=O)N[C@@H](CCCN)C(=O)NCCCCCCCCCCC(=O)O)NC(=O)[C@H](C(C)O)NC(=O)[C@H](C(C)C)NC(=O)[C@H](CC2CCCCC2)NC(=O)[C@H](CCN)NC1=O` (stereo partly drawn) [Compound 3344] ({CH2CO}-RY(Carboxymethyl)DWV[Bip]V[Orn][dL][Dab][Cha]V[Thr(3ξ)]C[Orn][Aun]-OH; thioether N-14), the IC50 was determined as 14.6 nM.

Turning to `CC(C)C[C@H]1NC(=O)[C@H](CCCN)NC(=O)[C@H](C(C)C)NC(=O)[C@H](Cc2ccc(-c3ccccc3)cc2)NC(=O)[C@H](C(C)C)NC(=O)[C@H](Cc2c[nH]c3ccccc23)NC(=O)[C@H](CC(=O)O)NC(=O)[C@H](Cc2ccc(OCC(=O)O)cc2)NC(=O)[C@H](CCCNC(=N)N)NC(=O)CSC[C@@H](C(=O)N[C@@H](CCCN)C(=O)NCCCCCCCCCCC(=O)O)NC(=O)[C@H](CCC(=O)O)NC(=O)[C@H](C(C)C)NC(=O)[C@H](CC2CCCCC2)NC(=O)[C@H](CCN)NC1=O` [Compound 3345] ({CH2CO}-RY(Carboxymethyl)DWV[Bip]V[Orn][dL][Dab][Cha]VEC[Orn][Aun]-OH; thioether N-14), the IC50 turned out to be 9.1 nM.

Regarding `CC(C)C[C@H]1NC(=O)[C@H](CCCN)NC(=O)[C@H](C(C)C)NC(=O)[C@H](Cc2ccc(-c3ccccc3)cc2)NC(=O)[C@H](C(C)C)NC(=O)[C@H](Cc2c[nH]c3ccccc23)NC(=O)[C@H](CC(=O)O)NC(=O)[C@H](Cc2ccc(OCC(=O)O)cc2)NC(=O)[C@H](CCCNC(=N)N)NC(=O)CSC[C@@H](C(=O)N[C@@H](CCCN)C(=O)NCCCCCCCCCCC(=O)O)NC(=O)[C@H](CCCN)NC(=O)[C@H](C(C)C)NC(=O)[C@H](CC2CCCCC2)NC(=O)[C@H](CCN)NC1=O` [Compound 3346] ({CH2CO}-RY(Carboxymethyl)DWV[Bip]V[Orn][dL][Dab][Cha]V[Orn]C[Orn][Aun]-OH; thioether N-14), the IC50 was 10.9 nM.

Regarding `CC(C)C[C@H]1NC(=O)[C@H](CCCN)NC(=O)[C@H](C(C)C)NC(=O)[C@H](Cc2ccc(-c3ccccc3)cc2)NC(=O)[C@H](C(C)C)NC(=O)[C@H](Cc2c[nH]c3ccccc23)NC(=O)[C@H](CC(=O)O)NC(=O)[C@H](Cc2ccc(OCC(=O)O)cc2)NC(=O)[C@H](CCCNC(=N)N)NC(=O)CSC[C@@H](C(=O)NCCOCCOCC(=O)NCCCCCCCCCCC(=O)O)NC(=O)[C@H](CCCN)NC(=O)[C@H](C(C)C)NC(=O)[C@H](CC2CCCCC2)NC(=O)[C@H](CCN)NC1=O` [Compound 3347] ({CH2CO}-RY(Carboxymethyl)DWV[Bip]V[Orn][dL][Dab][Cha]V[Orn]C[AEEA][Aun]-OH; thioether N-14), the IC50 stood at 3.7 nM.

For `Cc1cccc(C[C@@H]2NC(=O)[C@H](CC(=O)O)NC(=O)[C@H](Cc3ccc(OCC(=O)O)cc3)NC(=O)[C@H](Cc3ccncc3)NC(=O)CSC[C@@H](C(=O)N[C@@H](CCCN)C(=O)NCCCCCCCCCCC(=O)O)NC(=O)[C@H](CCCN)NC(=O)[C@H](C(C)C)NC(=O)[C@H](CC3CCCCC3)NC(=O)[C@H](CCN)NC(=O)[C@@H](CC(C)C)NC(=O)[C@H](CCCN)NC(=O)[C@H](C(C)C)NC(=O)[C@H](Cc3ccc(-c4ccccc4)cc3)NC(=O)[C@H](C(C)C)NC2=O)c1` [Compound 3348] ({CH2CO}-[4Pal]Y(Carboxymethyl)D[Phe(3-Me)]V[Bip]V[Orn][dL][Dab][Cha]V[Orn]C[Orn][Aun]-OH; thioether N-14), the IC50 came out at 12.8 nM.

Consider `CC(C)C[C@H]1NC(=O)[C@H](CCCN)NC(=O)[C@H](Cc2ccc(O)cc2)NC(=O)[C@H](Cc2ccc(-c3ccccc3)cc2)NC(=O)[C@H](C(C)C)NC(=O)[C@H](Cc2c[nH]c3ccccc23)NC(=O)[C@H](CC(=O)O)NC(=O)[C@H](Cc2ccc(OCC(=O)O)cc2)NC(=O)[C@H](CCCNC(=N)N)NC(=O)CSC[C@@H](C(=O)N[C@@H](CCN)C(=O)NCCCCCCCCCCC(=O)O)NC(=O)[C@H](CCC(=O)O)NC(=O)[C@H](C(C)C)NC(=O)[C@H](CC2CCCCC2)NC(=O)[C@H](CCN)NC1=O` [Compound 3349] ({CH2CO}-RY(Carboxymethyl)DWV[Bip]Y[Orn][dL][Dab][Cha]VEC[Dab][Aun]-OH; thioether N-14), for which the IC50 was determined as 8.5 nM.

On to `Cc1cccc(C[C@@H]2NC(=O)[C@H](CC(=O)O)NC(=O)[C@H](Cc3ccc(OCC(=O)O)cc3)NC(=O)[C@H](C(C)O)NC(=O)CSC[C@@H](C(=O)NCCOCCOCC(=O)NCCCCCCCCCCC(=O)O)NC(=O)[C@H](CCCN)NC(=O)[C@H](C(C)C)NC(=O)[C@H](CC3CCCCC3)NC(=O)[C@H](CCN)NC(=O)[C@@H](CC(C)C)NC(=O)[C@H](CCN)NC(=O)[C@H](C(C)C)NC(=O)[C@H](Cc3ccc(-c4ccccc4)cc3)NC(=O)[C@H](C(C)C)NC2=O)c1` (stereo partly drawn) [Compound 3350] ({CH2CO}-[Thr(3ξ)]Y(Carboxymethyl)D[Phe(3-Me)]V[Bip]V[Dab][dL][Dab][Cha]V[Orn]C[AEEA][Aun]-OH; thioether N-14), for which the IC50 was found to be 6.3 nM.

Take `Cc1cccc(C[C@@H]2NC(=O)[C@H](CC(=O)O)NC(=O)[C@H](Cc3ccc(OCC(=O)O)cc3)NC(=O)[C@H](CCCNC(=N)N)NC(=O)CSC[C@@H](C(=O)NCCOCCOCC(=O)NCCCCCCCCCCC(=O)O)NC(=O)[C@H](CCCN)NC(=O)[C@H](C(C)C)NC(=O)[C@H](CC3CCCCC3)NC(=O)[C@H](CCN)NC(=O)[C@@H](CC(C)C)NC(=O)[C@H](CCN)NC(=O)[C@H](C(C)C)NC(=O)[C@H](Cc3ccc(-c4ccccc4)cc3)NC(=O)[C@H](C(C)C)NC2=O)c1` [Compound 3351] ({CH2CO}-RY(Carboxymethyl)D[Phe(3-Me)]V[Bip]V[Dab][dL][Dab][Cha]V[Orn]C[AEEA][Aun]-OH; thioether N-14): the IC50 stood at 4.2 nM.

Regarding `Cc1cccc(C[C@@H]2NC(=O)[C@H](CC(=O)O)NC(=O)[C@H](Cc3ccc(OCC(=O)O)cc3)NC(=O)[C@H](Cc3ccco3)NC(=O)CSC[C@@H](C(=O)N(C)[C@H](CC(N)=O)C(=O)NCCCCCCCCCCC(=O)O)NC(=O)[C@H](CCCN)NC(=O)[C@H](C(C)C)NC(=O)[C@H](CC3CCCCC3)NC(=O)[C@H](CCN)NC(=O)[C@@H](CC(C)C)NC(=O)[C@H](CCN)NC(=O)[C@H](C(C)C)NC(=O)[C@H](Cc3ccc(-c4ccccc4)cc3)NC(=O)[C@H](C(C)C)NC2=O)c1` [Compound 3352] ({CH2CO}-[Ala(2-furyl)]Y(Carboxymethyl)D[Phe(3-Me)]V[Bip]V[Dab][dL][Dab][Cha]V[Orn]C[dNMeN][Aun]-OH; thioether N-14), the 50% inhibitory concentration (IC50) was determined as 26.5 nM.
